6 compounds from patent publication US8987273B2, “Substituted imidazo[1,2-B]pyridazines” (Bayer Intellectual Property GmbH, priority 2010, dated 2015) can be followed below.

Assay [1] has as its target His-tagged human recombinant kinase full-length Akt1 (Homo sapiens (Human), UniProt P31749). Nature of the assay: Akt1 kinase assay (TR-FRET). To be noted: 10 μM ATP; median. It is filed as biochemical. Put shortly: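 Full-length His-tagged human Akt1 from insect cells, pre-incubated 15 min with compound, then 60 min at 22° C with 10 μM ATP and 1 μM biotinylated peptide in pH 7.5 TRIS buffer. Phosphopeptide detected by HTRF (665/620 nm ratio); data normalised to no-inhibitor and no-enzyme controls.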
(In general: In TR-FRET formats the signal depends on donor and acceptor labels being close together.)

Assay [2] concerns the target His-tagged human recombinant kinase full-length Akt2 (Homo sapiens (Human), UniProt P31751). Nature of the assay: Akt2 kinase assay (TR-FRET). The class given is biochemical. To be noted: 10 μM ATP; median. Put shortly: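 PDK1-activated full-length His-Akt2 (insect-cell expressed, ~0.2 ng/μl final) pre-incubated with compound 15 min, then reacted 60 min at 22 °C with 10 μM ATP and 1 μM biotinylated peptide in Tris pH 7.5/MgCl2/DTT. EDTA stop; phospho-peptide read by HTRF 665/620 ratio, normalised to no-inhibitor and no-enzyme controls.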

The test system of assay [3] is phospho-AKT at S473 in KPL4 breast tumour cell line. Nature of the assay: Cellular p-AKT1/2/3-S473 assay. It is filed as cell-based. To be noted: KPL4 cells, 2 hours treatment; median; read-out: pAKT-S743 median IC50.
For a further assay, the system named is KPL-4 cells. Nature of the assay: Tumor cell proliferation assay (CellTiter-Glo). It is filed as cell-based. To be noted: KPL4; 72 h drug exposure. (In general: In ATP-based viability assays light output follows the ATP content of the culture.)

Chain of His-tagged human recombinant kinase full-length Akt2 (P31751 whole entry): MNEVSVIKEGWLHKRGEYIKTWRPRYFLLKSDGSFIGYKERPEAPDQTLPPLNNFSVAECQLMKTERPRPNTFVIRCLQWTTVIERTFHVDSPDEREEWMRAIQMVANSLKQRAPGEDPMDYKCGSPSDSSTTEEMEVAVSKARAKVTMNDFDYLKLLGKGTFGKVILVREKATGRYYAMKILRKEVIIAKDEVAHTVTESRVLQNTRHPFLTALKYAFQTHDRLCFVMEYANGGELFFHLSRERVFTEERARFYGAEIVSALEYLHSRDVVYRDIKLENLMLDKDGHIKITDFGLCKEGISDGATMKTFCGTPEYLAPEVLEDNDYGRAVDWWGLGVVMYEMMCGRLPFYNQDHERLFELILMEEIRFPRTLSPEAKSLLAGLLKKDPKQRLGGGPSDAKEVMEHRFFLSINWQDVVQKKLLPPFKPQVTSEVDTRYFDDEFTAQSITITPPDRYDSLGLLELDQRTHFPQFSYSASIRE
Chain of His-tagged human recombinant kinase full-length Akt1 (P31749 whole entry): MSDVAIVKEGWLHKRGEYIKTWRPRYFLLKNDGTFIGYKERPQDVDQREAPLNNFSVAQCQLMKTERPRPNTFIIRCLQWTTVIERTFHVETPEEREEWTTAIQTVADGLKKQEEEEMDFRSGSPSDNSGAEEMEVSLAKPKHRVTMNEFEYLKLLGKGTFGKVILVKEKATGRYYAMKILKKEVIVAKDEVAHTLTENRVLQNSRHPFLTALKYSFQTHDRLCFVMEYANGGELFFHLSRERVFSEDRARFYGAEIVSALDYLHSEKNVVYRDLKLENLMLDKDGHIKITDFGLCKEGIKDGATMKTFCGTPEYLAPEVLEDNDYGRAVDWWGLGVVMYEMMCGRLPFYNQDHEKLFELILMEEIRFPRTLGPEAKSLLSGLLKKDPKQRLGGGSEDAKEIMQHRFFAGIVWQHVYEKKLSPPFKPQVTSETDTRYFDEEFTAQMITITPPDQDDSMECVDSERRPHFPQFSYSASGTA

As to `COC(=O)/C=C/c1c(C)nc2cc(-c3ccccc3)c(-c3ccc(C4(N)CCC4)cc3)nn12` [Example 11-0, (E)-3-{6-[4-(1-Amino-cyclobutyl)-phenyl]-2-methyl-7-phenyl-imidazo[1,2-b]pyridazin-3-yl}-acrylic acid methyl ester], the IC50 (usually the midpoint of a concentration-inhibition curve) in assay [1] worked out at 5.97 µM; in assay [2] it was 10.1 µM; in assay [3], 10 µM; in the assay on KPL-4 cells, 5280 nM.
`Cc1nc2cc(-c3ccccc3)c(-c3ccc(C4(N)CCC4)cc3)nn2c1/C=C/C(N)=O` [Example 10-0, (E)-3-{6-[4-(1-Amino-cyclobutyl)-phenyl]-2-methyl-7-phenyl-imidazo[1,2-b]pyridazin-3-yl}-acrylamide]: the IC50 was found to be 18 µM in assay [1], 20 µM in assay [2], 10 µM in assay [3] and 2490 nM in the assay with KPL-4 cells.
On the same counts, the results for `Cc1nc2cc(-c3ccccc3)c(-c3ccc(C4(N)CCC4)cc3)nn2c1-c1ccc(F)cc1` [Example 5-3, 1-{4-[3-(4-Fluorophenyl)-2-methyl-7-phenyl-imidazo[1,2-b]pyridazin-6-yl]-phenyl}-cyclobutylamine] are 4.43 µM, 5.11 µM, 9.17 µM and 2280 nM.
Regarding `NC(=O)/C=C/c1cnc2cc(-c3ccccc3)c(-c3ccc(C4(N)CCC4)cc3)nn12` [Example 8-0, (E)-3-{6-[4-(1-Amino-cyclobutyl)-phenyl]-7-phenyl-imidazo[1,2-b]pyridazin-3-yl}-acrylamide], the IC50 in assay [1] is 0.038 µM; in assay [2], 0.222 µM; in assay [3], 0.05 µM; in the assay with KPL-4 cells, 2420 nM.
For the compound `C=Cc1c(C)nc2cc(-c3ccccc3)c(-c3ccc(C4(N)CCC4)cc3)nn12` [Example 12-0, 1-[4-(2-Methyl-7-phenyl-3-vinyl-imidazo[1,2-b]pyridazin-6-yl)-phenyl]-cyclobutylamine], the IC50 in assay [1] was 8.94 µM; in assay [2], 16.7 µM; in assay [3], 10 µM; in the assay with KPL-4 cells, 3200 nM.
As to `Cc1nc2cc(-c3ccccc3)c(-c3ccc(C4(N)CCC4)cc3)nn2c1-c1ccn[nH]1` [Example 5-5, 1-{4-[2-Methyl-7-phenyl-3-(2H-pyrazol-3-yl)-imidazo[1,2-b]pyridazin-6-yl]-phenyl}-cyclobutylamine], the IC50 in assay [1] was determined as 2.73 µM; in assay [2], 5.23 µM; in assay [3], 4.11 µM; in the assay on KPL-4 cells, 3690 nM.
